“Also recorded” adds a separate entry of the source. Marks after values point to notes of the source that are not given here.
Key:
rats = conditions: Tashjian et al. 2008; cited from earlier work
Male Swiss-Webster mice = assay: Cortical bone mineral content (ash fraction) and geometrical properties of the femur; type: in vivo, mouse; conditions: femoral midshaft, 2.5 nmol/kg s.c., 8 weeks, normalized by body mass, SD in parentheses
From the text: All handling procedures and experiments were approved by the Michigan Technological University Institutional Animal Care and Use Committees. Male Swiss-Webster mice were obtained from a commercial breeder (Harlan, Indianapolis, Ind.). All animals were maintained on a 12-h light/12-h dark cycle, and were permitted free access to water and food containing 0.95% calcium (Purina Rodent Diet #5001).
In the first experiment, 11 wk old mice received daily (5 days/week) subcutaneous injections of 2.5 nmol/kg PTH 1-34 (hPTH 1-34 or bbPTH 1-34) or acidic saline vehicle (0.15 M NaCl+0.001 N HCl) for 8 weeks (n=10 mice/group). In the second experiment, 12 wk old mice received daily (5 days/week) subcutaneous injections of 2.5 nmol/kg PTH 1-84 (hPTH 1-84 or bbPTH 1-84) or acidic saline vehicle for 8 weeks (n=10 mice/group). All PTH- and vehicle-treated animals received subcutaneous injections of calcein at a dosage of 10 mg/kg on days 12 and 3 before death to label mineralizing bone surfaces. Twenty-four hours following the last treatment injection, mice were sacrificed by carbon dioxide asphyxiation. Right femurs were fixed in 10% neutral buffered formalin. Left femurs were wrapped in 0.15M saline soaked gauze and stored at −20 deg C. Left tibias were stored in 70% ethanol at 4 deg C.
Following the bending test, the left femoral diaphyses were ashed in a furnace to determine mineral content (ash fraction). Right femoral diaphyses were embedded in methyl methacrylate and sectioned with a diamond saw to expose the midshaft cross-section. Images of the midshaft cross-sections were captured using a digital camera (Spot Insight QE, Diagnostic Instruments Inc., Sterling Heights, Mich.), and Scion Image analysis software (Scion Corporation, Frederick, Md.) was used to calculate the periosteal area (Ps.Ar), cortical area (Ct.Ar), and endosteal area (Es.Ar) for each sample. Cortical bone thickness (Ct.Th) was calculated in 0.1 mm increments for each anatomical quadrant and for the entire cross-section using image analysis software (Bioquant Osteo, Nashville, Tenn.). Thin sections from the midshaft of the right femur were ground to a thickness of 50 μm and mounted on glass slides. Images of calcein labels were captured at 100× magnification and periosteal and endosteal mineral apposition rates (Ps.MAR and Es.MAR, respectively) and mineralizing surfaces (Ps.MS/BS and Es.MS/MS) were quantified (Bioquant) for each femur.
All bone geometrical, architectural, and mineral properties were normalized by body mass to account for potential variation in animal size (31-33). Trabecular bone properties quantified by micro-computed tomography were compared by ANOVA between vehicle, bear, and human PTH-treated mice within each study (PTH 1-34 or PTH 1-84). The microCT parameters were not directly compared between the PTH 1-34 and PTH 1-84 studies because analyses were conducted on different microCT machines. For all other bone properties, all six experimental groups (from both the PTH 1-34 and PTH 1-84 studies) were compared with ANOVA and Fisher's PLSD. A significance of p<0.05 was used for all comparisons.

[1] = test system: human fetal osteoblasts (hFOB); assay: Serum starvation cell death in human fetal osteoblasts (trypan blue); type: cell-based; conditions: 100 nM for 1 hour before serum starvation for 24 hours, preliminary studies, p<0.0001
Method: All PTH peptides used in the current study attenuated apoptotic signaling induced by serum starvation in vitro (FIG. 19). bbPTH 1-34 reduced apoptotic signaling in pre-osteoblastic cells more than human PTH (FIG. 19). Recently, we found similar results with preliminary studies in human fetal osteoblasts (hFOB). Serum starvation for 24 hours increased cell death in hFOB (confirmed via trypan blue staining), but pretreatment of hFOB cells with 100 nM PTH 1-34 or 1-84 for 1 hour before starvation reduced percent cell death (percentage change in cell death compared to vehicle pretreatment, hPTH 1-34: −18%, bbPTH 1-34: −25%, hPTH 1-84: −17%, bbPTH 1-84: −21%; p<0.0001; data not shown). […] However, although bbPTH 1-84 was less anti-apoptotic than bbPTH 1-34 and hPTH 1-34 in vitro (FIG. 19) it caused the greatest increases in cortical and trabecular bone mass in the in vivo studies (Table 1, Table 2).

MC-3T3 cells = assay: Gene expression by real-time PCR in MC-3T3 cells (Example 11); type: cell-based; conditions: 100 nM
Method: MC-3T3 cells were incubated in vehicle or 100 nM synthetic bear or human PTH 1-34 for 3 or 6 hours (n=2 or 4). Total RNA was isolated, and cDNA was generated with reverse transcription. Primers for the bone matrix proteins type I collagen and osteocalcin, the pro-apoptotic protein Bax, the anti-apoptotic protein Bcl-2, and the housekeeping genes Gapdh, β-actin, and cyclophillin were designed using PrimerQuest software (Integrated DNA Technologies, Coralville, Iowa). Real-time PCR was performed using the Mx3000P real-time PCR system (Stratagene, LaJolla, Calif.). All samples were measured in duplicate. Gene expression was determined using the relative standard curve method normalized to the geometric mean of the three housekeeping genes (Gapdh, β-actin, and cyclophillin). Apoptosis-related genes were analyzed as the expression ratio of Bax/Bcl-2, since a decrease in this ratio is associated with decreased apoptosis in vitro.

## human PTH 1-34 [hPTH 1-34]
rats
  dose shown to be carcinogenic in rats: 5 µg/kg
Male Swiss-Webster mice
  Ct.Ar: 30.7 (3.0) mm^2/kg
  Ct.Th: 2.22 (0.20)^b mm/kg
  Es.Ar: 24.7 (3.7) mm^2/kg
  Ps.Ar: 55.3 (5.2)^b,c mm^2/kg
[1]
  percentage change in cell death compared to vehicle pretreatment: −18%
MC-3T3 cells; 3 hours, n=4, bear vs human p=0.047
  expression ratio of Bax/Bcl-2: increases
MC-3T3 cells; 6 hours
  expression of type I collagen compared to the vehicle control: did not affect
MC-3T3 cells; 6 hours, n=2
  expression of osteocalcin compared to the vehicle control: substantially upregulated; also recorded: upregulate

Source: patent US8987201B2, “Black bear parathyroid hormone and methods of using black bear parathyroid hormone” (Michigan Technological University, priority 2009, dated 2015)
